Like-named read-outs stand apart in the source and are kept apart here.
Legend:
DLBCL = conditions: cited from earlier work
MCL = conditions: cited from earlier work; for response rates: relapsed MCL, targeted therapies
B cells [1] = format: in vivo, cynomolgus monkeys
Experimental: (§1) A rising single i.v. dose range finding (DRF), toxicity and TK/PD study and three repeated dose toxicity studies were performed with ianalumab in cynomolgus monkeys. B-cell levels were evaluated in the studies.

mature B cell = assay: repeat dose toxicity study in mice: healthy B-cell levels; format: in vivo, CD-1 mice
Experimental: CD-1 mice were administered 0 mg/kg or 100 mg/kg of ianalumab by intravenous administration weekly for 13 weeks, followed by an 11 week recovery period.

BAFF-R = biological target: T1, BAFF-R (Homo sapiens, UniProt Q96RJ3); assay: Phase Ib study CVAY736Y2102: tissue receptor occupancy; format: in vivo; conditions: VAY736 doses of 3 mg/kg or above, in combination with ibrutinib
T1 construct: from tissue

BAFF = assay: Phase Ib study CVAY736Y2102: free BAFF; format: in vivo, human; conditions: VAY736 in combination with ibrutinib
SUDHL4 cells = assay: in vitro ADCC assay (Calcein AM-labeled SUDHL4 cells) with PBMC, pNK or NK3.3 effector cells; format: cell-based; conditions: for improvement in VAY736-induced ADCC with lenalidomide: 72 hr lenalidomide treatment
Experimental: NK3.3 cells were collected, washed 1×, and incubated in starvation media with or without 3 uM lenalidomide. Cells were incubated for 48 hrs or 72 hrs, collected, spun down, and resuspended in assay buffer. 100 μl of NK3.3 cells at the designated E:T ratios were transferred to a 96 well plate with SUDHL4 cells and antibodies. The co-culture was incubated for 2 hrs.
(§2) Frozen PBMC were thawed, or fresh PBMCs were isolated. If T cells were depleted, PBMC were used for a positive depletion of CD3 using CD3 beads (Miltenyi #130-050-101). Cells were washed 1×, and incubated in unstimulated media (phenol red free/glutamax/hepes/anti-penicillin anti-streptomycin/FBS) with or without 3 μM, 1 μM or 10 μM Lenalidomide. Cells were incubated for 24 hrs or 72 hrs. The supernatant was taken and frozen for IL2 analysis. In one study, for the 72 hr culture, 100 pg/ml IL2 was added to the culture for the last 24 hrs. Primary NK cells were isolated the day of the co-culture setup. 100 μl of PBMC or pNK cells at the designated E:T ratios were transferred to the 96 well plate with the SUDHL4 cells and antibodies. The co-culture was incubated for 3 hrs or 4 hrs.
A total of 10e6 or 4e6 SUDHL4 cells were incubated with Calcein AM for 60 minutes. Cells were then washed 2× with 30 ml of media. Cells were counted, and resuspended to 0.15 e6/ml or 0.2 e6/ml, and in one study 40 ng/ml of IL2 was added. A total of 50 μl cells were then transferred to a 96 well plate. […] Effector cells were then added to the 96 well plate. The plate was then spun in a centrifuge without the brake at 200×g for 4 min, and the co-culture was incubated for 2 hrs, 3 hrs or 4 hrs. The plate was then spun without the brake at 1500 RPM for 4 min. 100 μl of the supernatant was moved to black 96 well plates (Corning, #3904) and fluorescence was recorded with a PerkinElmer Envision plate reader.

B cells [2] = assay: three repeated dose toxicity studies; format: in vivo, cynomolgus monkeys
Experimental: as §1

DLBCL cell line SUDHL4 = assay: in vivo DLBCL model: SUDHL4 implanted subcutaneously into SCID mice; conditions: 5 mg/kg or 50 mg/kg VAY736 intravenously weekly
Source text: Vehicle and rituximab were used as controls.

IL2 = IL2 production in PBMC treated with lenalidomide; format: cell-based; conditions: 72 hr lenalidomide, PBMC with and without CD3+ cells (FIG. 8)
Experimental: as §2

Compound: blinatumomab: bispecific antibody
- response rates (DLBCL; DLBCL): 35-50%

Compound: brentuximab vedotin
- ORR (DLBCL; CD30+ relapsed DLBCL): 44%

Compound: C=CC(=O)N1CCC[C@@H](n2nc(-c3ccc(Oc4ccccc4)cc3)c3c(N)ncnc32)C1 [ibrutinib]
- treatment-related adverse effects compared to temsirolimus (MCL; Phase III study): fewer treatment-related adverse effects

Compound: CC(C)C[C@H](NC(=O)[C@H](Cc1ccccc1)NC(=O)c1cnccn1)B(O)O [bortezomib]
- response rates (MCL): improved response rates

Compound: VAY736: non-fucosylated human IgG1 kappa anti-BAFFR antibody with enhanced ADCC; heavy chain SEQ ID NO: 9, light chain SEQ ID NO: 10
- tolerability (B cells [1]; cynomolgus monkey, in vivo): well tolerated
- dose that induced depletion of B cells (B cells [1]; single i.v. dose): ≥ 0.4 mg/kg
- mature B cell depletion (mature B cell; 100 mg/kg intravenous weekly for 13 weeks): 70-90%
- B cell levels during the recovery period (mature B cell; 11 week recovery period after 100 mg/kg weekly for 13 weeks): recovered
- tissue receptor occupancy (BAFF-R): > 99%
- free BAFF (BAFF): accumulated to steady state with no dose relationship
- ADCC in the presence of VAY736 (SUDHL4 cells; effector cells PBMC, pNK cells, NK3.3 cell line): potent ADCC
- VAY736-dependent specific lysis of SUDHL4 cells, dose dependence (SUDHL4 cells; various effector cells): dose-dependent
- B cell depletion (B cells [2]): B cell depletion was observed at all dose levels
- tumor growth compared to the vehicle control (tumor volume measurements over time) (DLBCL cell line SUDHL4): significantly slowed tumor growth

Compound: polatuzumab vedotin
- ORR (DLBCL; in combination with rituximab and bendamustine): 70%

Compound: Nc1cccc2c1CN(C1CCC(=O)NC1=O)C2=O (stereo not drawn) [lenalidomide]
- ORR (MCL; heavily pre-treated population, Phase II study EMERGE): 28%
- IL2 production in PBMC (IL2): IL2 produced by lenalidomide treatment by T cells
- ADCC with lenalidomide pretreatment (SUDHL4 cells; NK3.3 effector cells, E:T 20:1 and 7:1, 72 hr and 48 hr pretreatment (FIGS. 5, 6)): Slight increases in ADCC
- VAY736-induced ADCC with addition of lenalidomide (SUDHL4 cells; NK3.3 effector cells, more prominent with 72 hr pretreatment at E:T 20:1 (FIG. 2A-2B)): Increases in VAY736-induced ADCC
- VAY736-induced ADCC with lenalidomide pretreatment (SUDHL4 cells; PBMC effector cells, 24 hrs pretreatment, E:T 2:1): only showed an enhancement at the highest concentration
- VAY736-induced ADCC with lenalidomide pretreatment (SUDHL4 cells; PBMC effector cells, 24 hrs pretreatment, E:T 10:1): enhanced VAY736-induced ADCC
- VAY736-induced ADCC with lenalidomide pretreatment (SUDHL4 cells; PBMC effector cells, 24 hrs pretreatment, E:T 20:1): only a slight enhancement
- improvement in VAY736-induced ADCC with lenalidomide (SUDHL4 cells; PBMC effector cells, E:T 2:1): evident
- improvement in VAY736-induced ADCC with lenalidomide (SUDHL4 cells; PBMC effector cells, E:T 6:1): less pronounced
- VAY736-induced ADCC with lenalidomide (SUDHL4 cells; PBMC effector cells, 72 hr, E:T 3:1, largely dose-independent, hampered with IL2 stimulation): increased VAY736-induced ADCC
- dependence of the ADCC enhancement by lenalidomide on CD3+ T cells (SUDHL4 cells; PBMC vs CD3+ depleted PBMC, 72 hr): dependent on the presence of CD3+ T cells
- VAY736-induced ADCC with lenalidomide pretreatment (SUDHL4 cells; pNK cells isolated from PBMC pretreated 24 hrs, more so with 10:1 and 20:1): enhanced VAY736-induced ADCC
- VAY736-induced ADCC with lenalidomide pretreatment (SUDHL4 cells; pNK cells, 72 hr Len pretreatment, E:T 1:1 and 1:3): enhanced VAY736-induced ADCC
- VAY736-dependent percent specific lysis of SUDHL4 cells on addition of lenalidomide (SUDHL4 cells; various effector cells and treatment conditions): enhanced

Compound: CO[C@H]1C[C@@H]2CC[C@@H](C)[C@@](O)(O2)C(=O)C(=O)N2CCCC[C@H]2C(=O)O[C@H]([C@H](C)C[C@@H]2CC[C@@H](OC(=O)C(C)(CO)CO)[C@H](OC)C2)CC(=O)[C@H](C)/C=C(\C)[C@@H](O)[C@@H](OC)C(=O)[C@H](C)C[C@H](C)/C=C/C=C/C=C/1C [temsirolimus]
- response rates (MCL): improved response rates

From US20230279132A1, “TREATMENT OF B CELL MALIGNANCIES” (NOVARTIS AG, priority 2020, published 2023)
